The numbers were not newly measured in patent US20220175791A1, “Methods for Predicting Neisseria Spp. Susceptibility to Cefixime” (priority 2019, published 2022), which cites them from elsewhere.

With `C=CC1=C(C(=O)O)N2C(=O)[C@@H](NC(=O)/C(=N\OCC(=O)O)c3csc(N)n3)[C@H]2SC1` [cefixime, Cefixime], the tolerability entry (even in penicillin allergic patients) is on record as “very well tolerated”. For the same compound, the bioavailability entry (human, in vivo, po) was “high”.
